Tests used:
[1] = tested on: B6.Cg-Tg(HLA-A/H2-D)2Enge/J mice; conditions: mouse, in vivo
[2] = tested on: primary nasal septal epithelial cells; type: cell-based, C57BL/6N mice
nasal septal tissue = tested on: nasal septal tissue; parameters: species or system C57BL/6 mice; conditions: mouse, in vivo
[3] = tested on: Bone marrow derived dendritic cells (BMDC); type: cell-based, C57BL/6 mice
TC-1 epithelial cells = type: cell-based, murine
nasal epithelial cells = assay: Detection of apoptosis (caspase-3 staining) and necrosis (morphology) in nasal epithelium; conditions: 2 hours following nasal treatment, 15 μl

cholera toxin [CT]
end titer of anti-HBsAg IgG [1]: 6.4×10^5
secreted anti-HBsAg IgA [1]: equivalent local mucosal immune responses
surface expression of MHC class II [2]: no significant difference
cytokine response profile in nasal septal tissue (nasal septal tissue): increases in only IL-6 and IL-12 common to both NE and CT
cytokines and chemokines in BMDC supernatant [3]: stimulated IL-1α, IL-1β and MIP-1α in BMDC in addition to IL-10, G-CSF, IL-10, IL-4, IL-6, IL-9, IL-12, IL-15, IL-17, TNF-α, and KC
IL-6, TGF-β and TSLP in TC-1 supernatant (TC-1 epithelial cells): only IL-6 was induced

CCCCCCCCCCCCCCCC[n+]1ccccc1 [CPC, cetylpyridinium chloride]
inflammation in nasal epithelium (nasal epithelial cells): neutrophilic infiltration

Reference: patent publication US20130273113A1 (priority 2012, published 2013)
